Data reported in patent US20110171309A1, “Compositions and Methods for Composite Nanoparticle Hydrogels” (Board of Regents, The University of Texas System, priority 2008, published 2011).

What was measured:
[1] = system: human aortic smooth muscle cells; assay: Ascorbic acid scavenging of free radicals to increase cell survival, MTS assay; assay type: cell-based; settings: 50 mg/L ascorbic acid, 0.15% (w/v) Irgacure 2959, 5 min UV, 3 days
Protocol: The efficiency of the antioxidant, ascorbic acid, was evaluated in scavenging the free radicals in an effort to increase cell survival. HASMCs were exposed to 0.15% (w/v) solution of Irgacure 2959 in complete media supplemented with varying concentrations of ascorbic acid (0-200 mg/L). After incubating for 30 min, the cells were exposed to 5 min of UV light, and cell survival was quantified after 3 days. To evaluate the effect of added antioxidants on the gelation time, the gelation times (i.e., the time required for the materials to form a gel) were determined using three methods on 96-well plates. […] Then, the solution was monitored at that this specific wavelength AQ3 (610 nm) over a time course. The result was graphed as function of time, and the gelation time was defined as the time that had the highest changes in the absorbance intensities.
(§1) After the experiments, the cell survival was quantified using the MTS assay (CellTiter 961 Aqueous One Solution Cell Proliferation Assay, Promega) following the manufacturer's instructions. The cells were incubated with the MTS reagent for 4 h, after which 200 μL of the solution was transferred to 96-well plates, and absorbance was read at 490 nm using a microplate reader (VMax, Molecular Devices). Relative cell survival was obtained by dividing the absorbance reading of a cell sample by the mean absorbance value of the control.

[2] = system: human aortic smooth muscle cells; assay: Cytotoxic effects of photoinitiator concentrations, MTS assay; assay type: cell-based; settings: no UV, 3 days
Protocol: (§2) Human aortic smooth muscle cells (HASMC) were cultured in complete medium consisting of Dulbecco's modified Eagle medium supplemented with 10% fetal bovine serum and 1% penicillin-streptomycin (Invitrogen, Carlsbad, Calif.). Upon 80-90% confluency, the cells were passaged or used for experiments. For all experiments, the cells were seeded in 24-well plates (Corning, Corning, N.Y.) at a density of 7000 cells per well. Following seeding, the cells were incubated at 37 °C and 5% CO2 in a humid environment for 2 days to allow cellular attachment and growth. After 2 days, the HASMCs were exposed to varying concentrations of the photoinitiator Irgacure 2959 (Ciba Specialty Chemicals), and/or UV exposure.
To evaluate the cytotoxic effects of photoinitiator concentrations on HASMCs, the cells were seeded and cultured as described earlier. Irgacure 2959 was directly dissolved in complete media to obtain final concentrations of 0.01%, 0.02%, 0.04%, 0.08%, and 0.16% (w/v). These photoinitiator concentrations were well within the range required for photopolymerization in a short period of time. […] These solutions were then sterilized using 0.2-μm syringe filters before they were added to the HASMCs. The control wells consisted of cells incubated with photoinitiator-free complete media. After the addition of the photoinitiator, the cells were incubated for 3 days, and then cell survival was determined using MTS assays. The cell survival for the controls was determined to be 1±0.09. […] Upon increasing the photoinitiator concentrations above 0.02% (w/v), a statistically significant decrease was noticed in the relative cell survival.
as §1

NIH/3T3 fibroblast cells = settings: concentrations 0.05% (w/w); cited from earlier work
[3] = system: human aortic smooth muscle cells; assay: Combined effects of photoinitiator and UV exposure on cell survival, MTS assay; assay type: cell-based; settings: 3 days
Protocol: as §2
The cellular damage due to the combined effects of photoinitiator and UV exposure was evaluated. Briefly, the HASMCs were seeded onto 24-well plates and allowed to grow for 2 days. Irgacure 2959 solutions with final concentrations of 0.01%, 0.015%, 0.04%, and 0.08% (w/v) in complete media were prepared. After adding these solutions, cells were incubated for 30 min to allow for the mixing of the photoinitiator. The well plates were then exposed to 1, 3, and 5 min of UV light. Wells containing cells not exposed to either UV light or photoinitiator solution served as controls for this experiment. Cell samples were incubated for 3 days before analyzing the cell survival. […] The cell survival for the controls was determined to be 1±0.09.
as §1

SMILES	relative cell survival compared to samples without ascorbic acid [1]	relative cell survival ([2]; 0.01% (w/v))	relative cell survival ([2]; 0.02% (w/v))	relative cell survival ([2]; 0.16% (w/v))	cell survival ([2]; below 0.02% (w/v))	fibroblast survival (NIH/3T3 fibroblast cells)	relative cell survival ([3]; 0.01% (w/v), 1, 3 and 5 min UV)	relative cell survival ([3]; 0.015% (w/v), 1, 3 and 5 min UV)	relative cell survival ([3]; 0.04% (w/v), 1 min UV)	relative cell survival ([3]; 0.04% (w/v), 3 min UV)	relative cell survival ([3]; 0.04% (w/v), 5 min UV)
O=C1O[C@H]([C@@H](O)CO)C(O)=C1O [ascorbic acid]	significantly improve the relative cell survival rates	–	–	–	–	–	–	–	–	–	–
CC(C)(O)C(=O)c1ccc(OCCO)cc1 [Irgacure 2959, 2-hydroxy-1-[4-(2-hydroxyethoxy)phenyl]-2-methyl-1-propanone]	–	1.03±0.10	0.85±0.09	0.25±0.01	no significant decrease in cell survival	does not affect fibroblast survival	did not show any statistically significant decrease in relative cell survival	did not show any statistically significant decrease in relative cell survival	0.76±0.05	0.74±0.04	0.67±0.05
